According to article PMC11882969 (Nature Communications, 2025):
“And” between values parts separate entries of the source, which are not always exact repeats. Equal entries are not always repeated.

How the values were obtained:
hCB1 = hCB1 (Homo sapiens, UniProt P21554); assay: Tango β-arrestin-2 recruitment, HTLA cells, CB1R; assay type: cell-based; parameters: expressed in transfected cells; host or cells: HTLA cells (gift of R. Axel), transient transfection
hCB2 = hCB2 (Homo sapiens, UniProt P34972); assay: TRUPATH BRET2 GoA dissociation, HEK293T; assay type: cell-based; parameters: expressed in transfected cells; host or cells: HEK293T cells (ATCC: CRL-3216), transient co-transfection; details: for functional response, concentration-response point (FigS7e, normalized): Log[drug], replicate columns
Sequence of hCB2 (P34972 whole entry): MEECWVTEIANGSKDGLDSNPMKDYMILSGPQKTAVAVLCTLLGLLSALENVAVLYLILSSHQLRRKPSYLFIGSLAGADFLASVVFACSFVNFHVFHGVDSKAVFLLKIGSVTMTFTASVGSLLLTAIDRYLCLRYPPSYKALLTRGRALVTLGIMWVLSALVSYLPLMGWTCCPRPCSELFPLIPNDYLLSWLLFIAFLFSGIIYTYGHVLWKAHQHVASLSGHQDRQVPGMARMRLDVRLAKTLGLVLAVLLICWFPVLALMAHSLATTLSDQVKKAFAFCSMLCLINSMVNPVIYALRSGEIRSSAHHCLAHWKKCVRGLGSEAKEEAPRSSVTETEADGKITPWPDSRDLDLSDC

Sequence of hCB1 (P21554 whole entry): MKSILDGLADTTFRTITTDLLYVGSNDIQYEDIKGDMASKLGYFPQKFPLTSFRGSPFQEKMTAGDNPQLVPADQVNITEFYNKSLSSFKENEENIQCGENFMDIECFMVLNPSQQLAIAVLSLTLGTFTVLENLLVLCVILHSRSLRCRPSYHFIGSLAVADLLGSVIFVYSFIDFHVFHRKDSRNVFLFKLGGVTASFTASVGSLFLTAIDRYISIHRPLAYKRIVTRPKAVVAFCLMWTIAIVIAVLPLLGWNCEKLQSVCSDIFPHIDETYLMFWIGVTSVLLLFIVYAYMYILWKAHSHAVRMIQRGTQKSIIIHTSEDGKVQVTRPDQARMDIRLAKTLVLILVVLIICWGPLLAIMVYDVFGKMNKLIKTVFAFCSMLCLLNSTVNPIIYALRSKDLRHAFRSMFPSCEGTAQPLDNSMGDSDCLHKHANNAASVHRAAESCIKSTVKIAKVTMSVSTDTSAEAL

Compound: COC(=O)C(NC(=O)c1cc(C)n(-c2cccc(C(F)(F)F)c2)n1)c1cccs1 (stereo not shown) [‘60154]
- Emax (hCB1; HTLA, hCB1, read-out: Tango ß-arrestin recruitment Emax): 39%
- response, replicate values of concentration-response curve (FigS7f) (hCB1; Log[drug], M = -4.52): 20.429 and 104.707 and 123.061 and 26.6803 and 2.239 and 9.553 and 21.4993 and 25.3085 and 22.5804
- response at Log[drug], M -4.52 (FigS4e) (hCB1; Log[drug], M = -4.52, individual replicates): 36.2928 and 40.0634 and 37.595 and 38.9593 and 35.7322 and 28.0596 and 40.2042 and 37.7287 and 36.7316 and 48.023 and 52.3904 and 37.2251
- response, replicate values of concentration-response curve (FigS7f) (hCB1; Log[drug], M = -5): 29.3399 and 77.9872 and 24.9124 and 21.905 and 24.6119 and -7.914 and 14.0694 and 22.9469 and 35.7257 and 39.8379 and 27.6728 and 20.59
- response at Log[drug], M -5 (FigS4e) (hCB1; Log[drug], M = -5, individual replicates): 27.1965 and 33.9994 and 36.3175 and 44.6129 and 35.5189 and 28.3176 and 42.1758 and 38.9685 and 43.9354 and 46.1208 and 46.0399 and 37.7973
- response, replicate values of concentration-response curve (FigS7f) (hCB1; Log[drug], M = -5.52): 24.9035 and 48.7158 and 91.1283 and -6.947 and -26.9779 and -11.1207 and 46.9121 and 22.8407 and -5.557 and 12.4866 and 10.6983 and 18.3267
- response at Log[drug], M -5.52 (FigS4e) (hCB1; Log[drug], M = -5.52, individual replicates): 25.9735 and 23.5078 and 35.2885 and 29.1149 and 28.5437 and 33.06 and 31.1872 and 38.5344 and 34.9915 and 38.6816 and 30.9446 and 24.7853
- response, replicate values of concentration-response curve (FigS7f) (hCB1; Log[drug], M = -6): 35.6397 and 64.0988 and 28.3754 and -0.07579 and -2.1717 and -13.0474 and 37.7825 and -1.0184 and -20.7108 and 24.6113 and 35.271 and 22.6916
- response at Log[drug], M -6 (FigS4e) (hCB1; Log[drug], M = -6, individual replicates): 18.7026 and 18.3517 and 20.9876 and 21.9355 and 21.9032 and 30.9802 and 39.6213 and 23.6016 and 27.6778 and 23.7782 and 27.0192 and 15.1437
- response, replicate values of concentration-response curve (FigS7f) (hCB1; Log[drug], M = -6.52): 40.4184 and 15.2889 and -15.0213 and 0.4345 and 12.418 and 31.9131 and 56.5195 and 30.6699 and -7.454 and 15.9018 and 24.7629 and -25.11
- response at Log[drug], M -6.52 (FigS4e) (hCB1; Log[drug], M = -6.52, individual replicates): 2.7065 and 1.809 and 4.4042 and 2.4679 and 5.955 and 7.47 and 7.413 and 8.766 and 8.7 and 7.813 and 3.502 and 4.219
- response, replicate values of concentration-response curve (FigS7f) (hCB1; Log[drug], M = -7): 42.117 and 22.4701 and 33.4423 and -35.9633 and 6.562 and -3.7308 and 26.543 and 5.232 and -0.3284 and 16.0836 and -9.206 and -14.6626
- response at Log[drug], M -7 (FigS4e) (hCB1; Log[drug], M = -7, individual replicates): -0.1594 and 1.156 and 1.734 and 0.4738 and 1.35 and 4.375 and 5.525 and -1.39 and -1.9125 and 2.9502 and 2.623 and 0.09812
- response, replicate values of concentration-response curve (FigS7f) (hCB1; Log[drug], M = -7.52): 9.097 and 42.2455 and 14.1224 and 6.121 and -38.1578 and 8.235 and 7.554 and -8.104 and 19.7008 and -1.133 and -13.7734
- response at Log[drug], M -7.52 (FigS4e) (hCB1; Log[drug], M = -7.52, individual replicates): -0.8122 and -1.1619 and -0.1273 and 2.722 and 1.436 and 3.312 and 3.337 and -1.53 and 0.254 and -0.2279 and 0.3901 and 2.167
- response at Log[drug], M -8 (FigS4e) (hCB1; Log[drug], M = -8, individual replicates): -0.5798 and -1.11 and -0.9423 and 0.6357 and 0.4201 and 2.003 and 3.003 and -1.545 and 0.894 and 0.1363 and 0.04065 and -0.5839
- response at Log[drug], M -8.52 (FigS4e) (hCB1; Log[drug], M = -8.52, individual replicates): -0.1435 and -1.173 and 0.8807 and -1.256 and 3.396 and 0.2695 and 3.693 and -1.556 and 1.54 and 0.762 and 0.3566 and -1.166
- response at Log[drug], M -9 (FigS4e) (hCB1; Log[drug], M = -9, individual replicates): -0.3789 and 0.9257 and 0.4985 and -1.1206 and 0.6246 and 1.649 and 1.459 and 1.082 and -0.1538 and 1.773 and 1.969 and 1.368
- response, replicate values of concentration-response curve (FigS7f) (hCB1; Log[drug], M = -9.52): 41.217 and -5.872 and -26.7955 and -2.208 and 11.6321 and -16.1909 and 10.2609 and 13.9367 and -21.8387 and 26.5917
- response at Log[drug], M -9.52 (FigS4e) (hCB1; Log[drug], M = -9.52, individual replicates): -0.6308 and 0.506 and 1.398 and 0.3411 and 1.417 and 1.054 and 1.983 and 0.4806 and -1.1508 and 1.754 and 1.621 and -0.4835
- response, replicate values of concentration-response curve (FigS7f) (hCB1; Log[drug], M = -10): 24.3711 and 8.545 and -42.2513 and 15.4728 and -21.9203 and 6.572 and 26.8747 and -5.278 and 28.0467 and 13.9517
- response at Log[drug], M -10 (FigS4e) (hCB1; Log[drug], M = -10, individual replicates): -0.3624 and -0.5584 and 1.6 and 1.1356 and 0.03407 and 2.157 and 0.3066 and -2.677 and -0.1348 and -0.07275 and 2.928 and 0.8882
- response at Log[drug], M -10.52 (FigS4e) (hCB1; Log[drug], M = -10.52, individual replicates): -0.1972 and -0.5734 and -0.1162 and -0.5884 and 2.053 and 3.553 and 2.404 and 0.5855 and 0.2182 and 0.2755 and 0.7811 and -2.185
- response at Log[drug], M -11 (FigS4e) (hCB1; Log[drug], M = -11, individual replicates): -0.4863 and -0.2436 and -0.1687 and -1.788 and -0.3582 and 1.843 and 0.2942 and 1.859 and 1.201 and 2.6701 and -0.898 and 1.465
- response at Log[drug], M -11.52 (FigS4e) (hCB1; Log[drug], M = -11.52, individual replicates): -1.461 and -1.915 and -0.401 and -1.735 and -0.6638 and -0.2757 and -0.3004 and 0.6619 and 0.7048 and -0.5021 and 3.748 and -0.3785
- response at Log[drug], M -12 (FigS4e) (hCB1; Log[drug], M = -12, individual replicates): 0.3314 and 0.2511 and -0.1836 and 1.061 and -0.3335 and 0.1951 and -0.1931 and -0.7644 and -0.8837 and -0.1348 and 1.783 and -1.1281
- Tango ß-arrestin recruitment pEC50 (hCB1; hCB1): 6.1 [6.0 – 6.1]
- EC50 (hCB1; hCB1, read-out: Tango ß-arrestin recruitment EC50): 819 nM
- BRET2 + GoA pEC50 (hCB2): 6.2 [5.6 – 6.9]
- EC50 (hCB2): 594 nM
- Emax (hCB2; HEK-293T): 31%
- functional response, concentration-response point (FigS7e, normalized) (hCB2; M = -4.52): 18.671 and 20.9182 and 18.0789 and 16.7004
- functional response, concentration-response point (FigS7e, normalized) (hCB2; M = -5): 15.3625 and 13.9237 and 14.7132 and 15.4107 and 19.4252 and 16.9876 and 18.2783 and 12.2533 and 11.9429 and 13.7725 and 13.3839 and 13.0025
- functional response, concentration-response point (FigS7e, normalized) (hCB2; M = -5.52): 9.963 and 10.999 and 10.5318 and 12.5419 and 11.8092 and 12.1824 and 9.605 and 7.598 and 8.713 and 9.44 and 10.8654 and 8.808
- functional response, concentration-response point (FigS7e, normalized) (hCB2; M = -6): 5.593 and 3.808 and 3.775 and 3.462 and 6.67 and 5.511 and 6.374 and 4.542 and 6.846 and 4.398 and 2.755 and 4.192
- functional response, concentration-response point (FigS7e, normalized) (hCB2; M = -6.52): 2.409 and 1.324 and 2.492 and 1.478 and 2.2654 and 2.677 and 2.607 and 2.647 and 2.733 and 1.4886 and 1.807 and 1.367
- functional response, concentration-response point (FigS7e, normalized) (hCB2; M = -7): 1.643 and 1.038 and 0.587 and 0.6659 and 0.7726 and 0.2984 and 0.761 and 0.6332 and 1.544 and 0.7947 and 0.4011 and 0.3139
- functional response, concentration-response point (FigS7e, normalized) (hCB2; M = -7.52): 0.7104 and 0.5146 and 0.05736 and 0.5245 and 1.192 and 0.7027 and 0.8893 and 0.666 and 0.5954 and 0.6963 and -0.03292 and 0.3929
- functional response, concentration-response point (FigS7e, normalized) (hCB2; M = -8): 0.3645 and 0.5311 and 0.5376 and 0.156 and -0.2264 and 0.2284 and 0.4344 and -0.3685 and 0.1487 and 0.4213 and 0.2144 and 0.1495
- functional response, concentration-response point (FigS7e, normalized) (hCB2; M = -8.52): 0.07184 and -0.1728 and 0.5013 and 0.625 and -0.3869 and 0.7675 and 0.7171 and -0.3804 and 0.4049 and 0.07444 and 0.02209 and 0.4671
